Columns and labels:
[1] = system: SK-MEL-28; assay: Cytotoxicity against human SK-MEL-28 cells assessed as reduction in cell viability by MTT assay; format: functional, cell-based
[2] = system: NCI-H322M; assay: Cytotoxicity against human NCI-H322M cells assessed as cell viability at 10 uM incubated for 48 hrs by sulforhodamine B assay relative to control; format: functional; conditions: read-out: Activity
[3] = system: OVCAR-8; assay: Cytotoxicity against human OVCAR-8 cells assessed as cell viability at 10 uM incubated for 48 hrs by sulforhodamine B assay relative to control; format: functional; conditions: read-out: Activity
[4] = system: ACHN; assay: Cytotoxicity against human ACHN cells assessed as cell viability at 10 uM incubated for 48 hrs by sulforhodamine B assay relative to control; format: functional; conditions: read-out: Activity
[5] = system: U-251; assay: Cytotoxicity against human U-251 cells assessed as cell viability at 10 uM incubated for 48 hrs by sulforhodamine B assay relative to control; format: functional; conditions: read-out: Activity
[6] = system: CCRF-CEM; assay: Cytotoxicity against human CCRF-CEM cells assessed as cell viability at 10 uM incubated for 48 hrs by sulforhodamine B assay relative to control; format: functional; conditions: read-out: Activity
[7] = system: SK-MEL-2; assay: Cytotoxicity against human SK-MEL-2 cells assessed as cell viability at 10 uM incubated for 48 hrs by sulforhodamine B assay relative to control; format: functional; conditions: read-out: Activity
[8] = system: MDA-MB-468; assay: Cytotoxicity against human MDA-MB-468 cells assessed as cell viability at 10 uM incubated for 48 hrs by sulforhodamine B assay relative to control; format: functional; conditions: read-out: Activity
[9] = system: NCI-H522; assay: Cytotoxicity against human NCI-H522 cells assessed as cell viability at 10 uM incubated for 48 hrs by sulforhodamine B assay relative to control; format: functional; conditions: read-out: Activity
[10] = system: SR; assay: Cytotoxicity against human SR cells assessed as cell viability at 10 uM incubated for 48 hrs by sulforhodamine B assay relative to control; format: functional; conditions: read-out: Activity
[11] = system: LOX IMVI; assay: Cytotoxicity against human LOX IMVI cells assessed as cell viability at 10 uM incubated for 48 hrs by sulforhodamine B assay relative to control; format: functional; conditions: read-out: Activity
[12] = system: HCC 2998; assay: Cytotoxicity against human HCC 2998 cells assessed as cell viability at 10 uM incubated for 48 hrs by sulforhodamine B assay relative to control; format: functional; conditions: read-out: Activity
[13] = system: MDA-MB-435; assay: Cytotoxicity against human MDA-MB-435 cells assessed as cell viability at 10 uM incubated for 48 hrs by sulforhodamine B assay relative to control; format: functional; conditions: read-out: Activity
[14] = system: A-375; assay: Cytotoxicity against human A-375 cells assessed as reduction in cell viability by MTT assay; format: functional, cell-based
[15] = system: EKVX; assay: Cytotoxicity against human EKVX cells assessed as cell viability at 10 uM incubated for 48 hrs by sulforhodamine B assay relative to control; format: functional; conditions: read-out: Activity
[16] = system: NCI-H23; assay: Cytotoxicity against human NCI-H23 cells assessed as cell viability at 10 uM incubated for 48 hrs by sulforhodamine B assay relative to control; format: functional; conditions: read-out: Activity
[17] = system: UACC-257; assay: Cytotoxicity against human UACC-257 cells assessed as cell viability at 10 uM incubated for 48 hrs by sulforhodamine B assay relative to control; format: functional; conditions: read-out: Activity
[18] = system: CAKI-1; assay: Cytotoxicity against human CAKI-1 cells assessed as cell viability at 10 uM incubated for 48 hrs by sulforhodamine B assay relative to control; format: functional; conditions: read-out: Activity
[19] = system: HCT-116; assay: Cytotoxicity against human HCT-116 cells assessed as cell viability at 10 uM incubated for 48 hrs by sulforhodamine B assay relative to control; format: functional; conditions: read-out: Activity
[20] = system: SF-295; assay: Cytotoxicity against human SF-295 cells assessed as cell viability at 10 uM incubated for 48 hrs by sulforhodamine B assay relative to control; format: functional; conditions: read-out: Activity

Row | Structure (SMILES) | IC50 [1] [µM] | viability at 10 µM [2] [%] | viability at 10 µM [3] [%] | viability at 10 µM [4] [%] | viability at 10 µM [5] [%] | viability at 10 µM [6] [%] | viability at 10 µM [7] [%] | viability at 10 µM [8] [%] | viability at 10 µM [9] [%] | viability at 10 µM [10] [%] | viability at 10 µM [11] [%] | viability at 10 µM [12] [%] | viability at 10 µM [13] [%] | IC50 [14] [µM] | viability at 10 µM [15] [%] | viability at 10 µM [16] [%] | viability at 10 µM [17] [%] | viability at 10 µM [18] [%] | viability at 10 µM [19] [%] | viability at 10 µM [20] [%]
1 | O=S(=O)(NCCCNc1nccc(-c2c(-c3cccc(F)c3)nc3sccn23)n1)c1ccc(F)cc1 | > 20 | 100 | 49.8 | 64.2 | 90.6 | 53.7 | 76.6 | 77.4 | 54 | 95.8 | 56 | 116 | 50.4 | 14.5 | 80.4 | 83.7 | 112 | 57.8 | 59.4 | 92.7
2 | O=C(NCCCNc1nccc(-c2c(-c3cccc(F)c3)nc3sccn23)n1)c1ccc(C(F)(F)F)cc1 | – | 90.3 | 73.9 | 64.5 | 83 | 89.1 | 98.8 | 76.6 | 90.3 | 86.8 | 82.6 | 112 | 68.7 | – | 72.2 | 95.5 | 106 | 62.5 | 66.7 | 87.5
3 | O=S(=O)(NCCNc1nccc(-c2c(-c3cccc(F)c3)nc3sccn23)n1)c1ccc(Cl)cc1 | 18.6 | 65.5 | 53.6 | 35.7 | 55.2 | 50.5 | 79.8 | 64.5 | 68.2 | 40.6 | 43.6 | 83.4 | 26.3 | 18.6 | 66.3 | 74.9 | 88.7 | 41.1 | 34 | 63.7
4 | O=S(=O)(NCCCNc1nccc(-c2c(-c3cccc(F)c3)nc3sccn23)n1)c1cccc(F)c1 | 8.55 | 79.9 | 18.4 | 42.5 | 70 | 24.7 | 47.6 | 33 | 21.9 | 64.9 | 39 | 99.3 | 24 | 13.7 | 52.4 | 38.8 | 50.8 | 41.5 | 48 | 51.1
5 | O=C(NCCNc1nccc(-c2c(-c3cccc(F)c3)nc3sccn23)n1)c1ccc(C(F)(F)F)cc1 | 9.26 | 81.8 | 54.8 | 42.6 | 77 | 53.5 | 69 | 77.6 | 65.7 | 68.9 | 64.8 | 100 | 47.7 | 8.71 | 69.1 | 80 | 96.8 | 55 | 50.6 | 74.4
6 | O=S(=O)(NCCCNc1nccc(-c2c(-c3cccc(F)c3)nc3sccn23)n1)c1cccc2ccccc12 | – | 81.6 | 38.5 | 34.7 | 59.1 | 38.5 | 47.8 | 59.3 | 56.3 | 62 | 20.9 | 16.3 | 22.6 | – | 56.1 | 66.2 | 72.8 | 29.1 | 32.4 | 34.6
7 | O=S(=O)(NCCNc1nccc(-c2c(-c3cccc(F)c3)nc3sccn23)n1)c1ccccc1 | 19 | 51.5 | 33.9 | 26 | 44 | 33.6 | 51.8 | 43.6 | 43.7 | 29.2 | 36.3 | 66.3 | 17.4 | 11 | 53.4 | 56.1 | 65.3 | 39.1 | 22.7 | 47.4
8 | O=C(NCCNc1nccc(-c2c(-c3cccc(F)c3)nc3sccn23)n1)C1CCCCC1 | – | 104 | 56.9 | 67.1 | 90.5 | 70 | 60.1 | 59.5 | 79.3 | 91 | 65.9 | 104 | 65.5 | – | 80.4 | 97 | 113 | 70.4 | 51.9 | 93.6
9 | O=S(=O)(NCCCNc1nccc(-c2c(-c3cccc(F)c3)nc3sccn23)n1)c1ccc(O)cc1 | – | 79.2 | 66.2 | 43.7 | 73.2 | 67.6 | 81.3 | 60.4 | 85 | 52.6 | 61.2 | 100 | 33.4 | – | 78.8 | 87.6 | 104 | 51.9 | 60 | 92
10 | O=S(=O)(NCCNc1nccc(-c2c(-c3cccc(F)c3)nc3sccn23)n1)c1cccc2ccccc12 | – | 104 | 89.4 | 80.1 | 97.4 | 93.9 | 104 | 86.1 | 95.5 | 88.1 | 95.7 | 131 | 87.7 | – | 93.9 | 99.9 | 107 | 77.5 | 84.6 | 106
11 | O=S(=O)(NCCNc1nccc(-c2c(-c3cccc(F)c3)nc3sccn23)n1)c1ccc(F)cc1 | 9.45 | 64 | 47.3 | 35.8 | 58.4 | 54.7 | 67.2 | 63.1 | 67 | 38 | 42.8 | 80.8 | 31.5 | 9.45 | 62.7 | 79.3 | 79.1 | 41.3 | 40 | 67.5
12 | O=C(NCCCNc1nccc(-c2c(-c3cccc(F)c3)nc3sccn23)n1)C1CCCCC1 | – | 86 | 71.1 | 45.3 | 79.6 | 73.2 | 78.4 | 74.3 | 77.6 | 70.2 | 57.4 | 90.5 | 50.5 | – | 80.8 | 75.7 | 95.2 | 55.7 | 49.3 | 89.8

From ChEMBL document CHEMBL4665642, “Anticancer profile of newly synthesized BRAF inhibitors possess 5-(pyrimidin-4-yl)imidazo[2,1-b]thiazole scaffold” (Bioorg Med Chem, 2019)
